This assay deals with T1, TYK2 (Homo sapiens, UniProt P29597).
T1 construct: purchased Thermo Fisher Scientific (Life Technologies) SelectScreen
Nature of the assay: SelectScreen Z'LYTE. It counts as biochemical. In short, it runs like this: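 Percent values come from Thermo SelectScreen profiling of NU5455, combining activity and binding assays. CSF1R was run in Z'LYTE format at Km app ATP, and CAMK1 in Adapta format with ATP listed at 10.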

Each structure is given as a SMILES string.

T1 sequence (P29597 whole entry): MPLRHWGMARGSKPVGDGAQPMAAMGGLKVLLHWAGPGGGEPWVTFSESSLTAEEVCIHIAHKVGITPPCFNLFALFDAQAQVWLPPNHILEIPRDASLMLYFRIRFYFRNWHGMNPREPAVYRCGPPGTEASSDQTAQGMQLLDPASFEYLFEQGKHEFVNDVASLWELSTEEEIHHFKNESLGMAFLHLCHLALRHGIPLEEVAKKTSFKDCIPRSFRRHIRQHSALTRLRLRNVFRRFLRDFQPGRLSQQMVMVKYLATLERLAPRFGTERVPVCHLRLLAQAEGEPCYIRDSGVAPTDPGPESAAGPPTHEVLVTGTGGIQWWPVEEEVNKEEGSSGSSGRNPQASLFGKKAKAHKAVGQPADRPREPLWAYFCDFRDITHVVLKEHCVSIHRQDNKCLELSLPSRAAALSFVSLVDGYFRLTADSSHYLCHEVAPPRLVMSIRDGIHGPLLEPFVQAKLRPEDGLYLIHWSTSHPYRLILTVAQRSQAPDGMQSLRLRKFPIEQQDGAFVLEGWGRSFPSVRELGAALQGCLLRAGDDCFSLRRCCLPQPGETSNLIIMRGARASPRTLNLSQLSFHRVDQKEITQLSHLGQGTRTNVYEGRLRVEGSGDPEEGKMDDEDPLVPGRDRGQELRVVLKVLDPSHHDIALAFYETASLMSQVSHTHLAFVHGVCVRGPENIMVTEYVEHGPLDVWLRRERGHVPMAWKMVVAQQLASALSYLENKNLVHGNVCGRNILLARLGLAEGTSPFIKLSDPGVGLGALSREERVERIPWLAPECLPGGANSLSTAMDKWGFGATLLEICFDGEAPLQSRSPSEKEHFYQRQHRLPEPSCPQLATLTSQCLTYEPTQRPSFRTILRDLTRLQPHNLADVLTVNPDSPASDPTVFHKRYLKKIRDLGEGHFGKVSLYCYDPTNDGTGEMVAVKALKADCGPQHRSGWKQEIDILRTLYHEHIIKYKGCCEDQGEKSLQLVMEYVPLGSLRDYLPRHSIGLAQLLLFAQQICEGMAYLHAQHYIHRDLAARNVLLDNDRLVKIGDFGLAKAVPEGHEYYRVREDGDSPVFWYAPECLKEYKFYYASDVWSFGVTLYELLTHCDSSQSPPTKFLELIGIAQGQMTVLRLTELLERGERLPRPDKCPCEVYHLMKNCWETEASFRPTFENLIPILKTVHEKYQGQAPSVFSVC

For orientation: inhibition means the percentage by which the read-out fell short of the control. `CN(C(=O)CN1CCOCC1)c1ccc2sc3c(-c4cccc5c(=O)cc(N6CC7CCC(C6)O7)oc45)cccc3c2c1` [NU5455]: the inhibition at 1 µM was found to be 4.2%.

The values above are taken from publication PMC6934184, “Selective DNA-PKcs inhibition extends the therapeutic index of localized radiotherapy and chemotherapy” (The Journal of Clinical Investigation, 2019).
